Assay results from US11135207B2, “Inhibitors of dihydroceramide desaturase for treating disease” (Centaurus Therapeutics, priority 2016, dated 2021).
Like-named read-outs stand apart in the source and are kept apart here.

What was measured:
Des1 = Des1 (Homo sapiens (Human), UniProt O15121); test: Jurkat T cell measurement of conversion of dihydroceramide to ceramide; format: cell-based; conditions: Jurkat clone E6-1 cells; for inhibition at 0.5 µM: 0.5 μM compound, read-out: Des1 % Inhib (0.5 μM)
Sequence of Des1 (O15121 whole entry): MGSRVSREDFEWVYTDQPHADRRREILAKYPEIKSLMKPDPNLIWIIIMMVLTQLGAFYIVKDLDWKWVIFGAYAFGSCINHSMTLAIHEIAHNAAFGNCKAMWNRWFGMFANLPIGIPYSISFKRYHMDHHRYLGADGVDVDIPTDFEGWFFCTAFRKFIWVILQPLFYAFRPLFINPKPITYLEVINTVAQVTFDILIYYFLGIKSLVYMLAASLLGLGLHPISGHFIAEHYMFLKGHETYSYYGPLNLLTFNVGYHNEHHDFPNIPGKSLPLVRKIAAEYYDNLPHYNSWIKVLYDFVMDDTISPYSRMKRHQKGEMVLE
Description: Jurkat T Cell Measurement of Conversion of Dihydroceramide to Ceramide
Jurkat clone E6-1 cells were grown and then seeded at 10^6 cells/mL in a 96-well plate (400 μL in each well. The cells were administered 100 μL of cell culture media containing 50-μM NBD-C6-dihydroceramide (Des1 substrate), affording a final concentration of substrate of 10 μM. The cells were incubated with substrate at 4° C. for 30 minutes. Following the incubation at 4° C., the cell suspension was centrifuged at 1200 rpm for 3 minutes, and the cell pellet is resuspended in 400 μL of fresh media containing various concentrations of either fenretinide (known Des1 inhibitor control compound) or test article. The final concentrations of control compound and test compounds were tested in a range from 0-10 μM. The cells and compounds were incubated at 37° C. for 3 hours. Following the 3-hour incubation, the plate was centrifuged at 2500 g for 3 minutes at 4° C., followed by collection and transfer of 200 μL of the supernatant to a new 96-well plate with 300 μL of methanol an containing appropriate internal standards for liquid chromatography/tandem mass spectroscopy (LC/MS/MS) analysis (internal standard: 500 nM labetalol and 100 nM alprazolam). The samples were vortexed for 2 minutes followed by centrifugation at 3,220 g for 20 minutes. Following centrifugation, 200 μL of the supernatant was transferred to a new 96-well plate for LC-MS/MS analysis to determine the amount of NBD-C6-ceramide (Des1 product) produced. The assay was typically performed in duplicate. A reduction of at least 30% compared to vehicle control (0 μM test article) is indicative of an active compound, and a reduction of 75% compared to vehicle control is preferred.

CFTR-KO mice = conditions: cited from earlier work
[1] = test system: insulin-stimulated Akt phosphorylation in C2C12 myotubes; test: C2C12 myotube assay of insulin-stimulated phosphorylation of Akt; format: cell-based; conditions: Mus musculus, in the presence of palmitate, read-out: half-maximal effective concentration (EC50) for increasing insulin-stimulated Akt phosphorylation
Description: C2C12 Myotube Assay of Insulin-Stimulated Phosphorylation of Akt:
C2C12 myotubes are treated with 0.75 mM BSA-conjugated palmitate for 16 hours in the presence or absence of 7 non-zero concentrations of fenretinide (Des1 inhibitor control compound) or various test articles, followed by a 10-minute stimulation with insulin (100 nM). Cells are subsequently harvested and boiled in reducing SDS sample buffer and subjected to SDS-PAGE followed by detection of phosphorylated Akt, total Akt, and a suitable loading control (e.g. actin or GAPDH) by western blot using fluorescently-conjugated secondary antibodies. Band intensities are quantitated by an Odyssey imaging system (Li-COR), but could also be performed using HRP-conjugated secondary antibodies/enhanced chemiluminescence or by colorimetric readout.
Moreover, while currently contemplated for SDS-PAGE/immunoblot format, this assay could be adapted to ELISA or in-cell western (immunocytochemistry) formats for higher throughput testing of compounds. An increase of 30% compared to vehicle control (0 μM test article) is indicative of an active compound, and an increase of 50% compared to control is preferred. […] Des1 inhibitors disclosed herein are expected to be effective in this assay.

[2] = NBD-C6-dihydroceramide substrate, read-out: Des1 IC50

Row | SMILES | inhibition at 0.5 µM (Des1) | IC50 (Des1; [2]) | other results
1 | CC(C)O[C@H]1CC[C@@H](C(=O)Nc2ccc(O)cn2)CC1 [Example 41, (1s,4s)-N-(5-hydroxypyridin-2-yl)-4-iso-propoxycyclo-hexane-1-carboxamide] | 81.3% | 88 nM | 
2 | CCc1ccc(C(=O)Nc2ccc(O)cn2)cc1 [Example 42, 4-ethyl-N-(5-hydroxy-pyridin-2-yl)-benzamide] | 85.5% | 130 nM | 
3 | Cc1ccc(C(=O)Nc2ccc(O)cn2)cc1 [Example 43, N-(5-hydroxy-pyridin-2-yl)-4-methylbenz-amide] | 59.3% |  | 
4 | O=C(Nc1ccc(O)cn1)c1ccc(C(F)(F)F)cc1 [Example 44, N-(5-hydroxy-pyridin-2-yl)-4-(trifluoro-methyl)-benzamide] | 88% | 63 nM | 
5 | CC(c1ccc(C(=O)Nc2ccc(O)cn2)cc1)C(F)(F)F (stereo not shown) [Example 45, N-(5-hydroxy-pyridin-2-yl)-4-(1,1,1-trifluoro-propan-2-yl)-benzamide] | 94% | 23 nM | 
6 | O=C(CC1CCN(c2ccc(C(F)(F)F)cc2)CC1)Nc1ccc(O)cn1 [Example 46, N-(5-hydroxypyridin-2-yl)-2-[1-[4-(trifluoromethyl)phenyl]piperidin-4-yl]acetamide] | 96.2% |  | 
7 | O=C(CN1CCN(c2ccc(C(F)(F)F)cc2)CC1)Nc1ccc(O)cn1 [Example 47, N-(5-hydroxypyridin-2-yl)-2-[4-[4-(trifluoromethyl)phenyl]piperazin-1-yl]acetamide] |  | 50 nM | 
8 | O=C(Nc1ccc(O)cn1)C1CCCN(c2ccc(F)cc2)C1 (stereo not shown) [Example 48, 1-(4-fluorophenyl)-N-(5-hydroxypyridin-2-yl)piperidine-3-carboxamide] | 91.3% | 250 nM | 
9 | O=C(CC1CCN(c2ccc(F)cc2)CC1)Nc1ccc(O)cn1 [Example 49, 2-[1-(4-fluorophenyl)piperidin-4-yl]-N-(5-hydroxypyridin-2-yl)acetamide] | 96.8% | 13 nM | 
10 | O=C(CN1CCN(c2ccc(F)cc2)CC1)Nc1ccc(O)cn1 [Example 50, 2-[4-(4-fluorophenyl)piperazin-1-yl]-N-(5-hydroxypyridin-2-yl)acetamide] | 92.3% | 140 nM | 
11 | O=C(CC1CCN(c2ccc(Cl)cc2)CC1)Nc1ccc(O)cn1 [Example 51, 2-[1-(4-chlorophenyl)piperidin-4-yl]-N-(5-hydroxypyridin-2-yl)acetamide] | 97.3% | 5 nM | 
12 | O=C(CN1CCN(c2ccc(Cl)cc2)CC1)Nc1ccc(O)cn1 [Example 52, 2-[4-(4-chlorophenyl)piperazin-1-yl]-N-(5-hydroxypyridin-2-yl)acetamide] | 94.1% | 66 nM | 
13 | O=C(Nc1ccc(O)cn1)C1CCN(c2ccc(C(F)(F)F)cc2)CC1 [Example 53, N-(5-hydroxypyridin-2-yl)-1-[4-(trifluoromethyl)phenyl]piperidine-4-carboxamide] |  | 2 nM | 
14 | O=C(Nc1ccc(O)cn1)C1CCN(c2ccc(F)cc2)CC1 [Example 54, 1-(4-fluorophenyl)-N-(5-hydroxypyridin-2-yl)piperidine-4-carboxamide] | 96.6% | 11 nM | 
15 | CC1=C(/C=C/C(C)=C/C=C/C(C)=C/C(=O)Nc2ccc(O)cc2)C(C)(C)CCC1 [fenretinide] |  |  | susceptibility to infection with Pseudomonas aeruginosa (CFTR-KO mice; CFTR-KO mice): reduce susceptibility to infection with Pseudomonas aeruginosa; lung AA/DHA ratio (CFTR-KO mice; lungs of CFTR-KO mice): normalize this ratio; IC50 (Des1; read-out: half-maximal inhibitory concentration (IC50)): 100 to 250 nM; EC50 [1]: 600 nM
